In US20250354998A1, “METHODS OF DIAGNOSING AND TREATING MULTIPLE SCLEROSIS BY DETECTING A BIOMARKER IN THE CEREBROSPINAL FLUID” (Principia Biopharma Inc., priority 2023, published 2025):

Legend:
CXCL13 = CXCL13 protein level in CSF by MSD (meso scale discovery); assay type: in vivo, human; details: MSD (FIG. 6); twelve week and forty-eight week course of tolebrutinib vs untreated, HAM/TSP or continued ocrelizumab
Excerpt: HV: health volunteer; HAM/TSP: HTLV-1 associated myelopathy/tropical spastic paraparesis without treatment; MS_untreated: subjects with MS but have not been treated; MS_ocrelizumab: subjects treated only with an anti-CD20 antibody; MS_tolebrutinib: subjects treated with daily doses of tolebrutinib.
Similarly, this decrease was seen when comparing subjects who continued treatment with the anti-CD20 antibody (ocrelizumab) with subjects treated with a twelve week and forty-eight week course of tolebrutinib. FIGS. 4D, 5, and 6.

[1] = system: CSF proteome (Olink Explore 384 panels, 1463 analytes); experiment: Olink proteomics of cerebrospinal fluid of MS patients under therapy; assay type: in vivo, human
Protocol: In the present study, a platform technology (Olink® Proteomics) was used. This test utilizes a high throughput, multiplex immunoassay technology that enables the measurement of over 1000 proteins from small sample volumes. See e.g., Assarsson E, et al. PLoS One 2014; 9(4): e95192; and Cui M, et al. Lab Invest 2022, each of which is incorporated by reference in its entirety. Two sets of subjects were analyzed. First, Olink proteomics technology was used to profile the baseline CSF proteome of untreated MS patients. Second, alterations to the MS CSF proteome upon therapeutic intervention with either a B cell depleting agent alone or after transitioning to tolebrutinib, a brain penetrant Bruton's tyrosine kinase (BTK) inhibitor, was evaluated.
To establish a baseline of proteomic expression, an Olink proteomics assay was performed on the CSF of multiple groups of subjects, including healthy volunteers (HV), HTLV 1 associated myelopathy/tropical spastic paraparesis (HAM/TSP) patients, radiologically isolated syndrome (RIS) patients, clinically isolated syndrome (CIS) patients, and multiple sclerosis (MS) patients, including patients with relapsing remitting MS (RRMS), secondary progressive MS (SPMS), and primary progressive MS (PPMS). CSF samples were collected from 31 healthy volunteers and 71 treatment-naïve subjects with MS. The CSF proteome was examined using the Cardiometabolic, Inflammation, Neurology, and Oncology Olink Explore 384 panels (1463 analytes total).
Next, it was examined whether treatment with different therapies for patients having MS would result in differential proteome expression. A group of subjects with MS were treated either with an anti-CD20 antibody alone or with an anti-CD20 antibody and then transitioning to tolebrutinib, and their proteome was examined using similar techniques described in Example 1B. More specifically, the cohort of MS patients in this example included untreated patients, patients treated with a B cell depleting agent for at least six months, and patients 12 weeks and 48 weeks after transitioning from a B cell depletion therapy to tolebrutinib in a clinical trial (NCT04742400).
Several participants (age [mean±standard deviation]: 48.2±7.9 years; sex: 2 female) who had been treated with ocrelizumab for >6 months (median: 3.2 years; range: 1.8-4.0 years) were included. Participants had no signs of acute focal inflammation based on magnetic resonance imaging. CSF was collected before baseline (within 6 months since last ocrelizumab infusion), and at 12 and 48 weeks after transitioning to tolebrutinib 60 mg.
The data were sorted into two sets of comparisons. The comparisons include (1) subjects treated with an anti-CD20 antibody compared to untreated MS subjects (FIG. 3) and (2) subjects treated with tolebrutinib after transitioning from an anti-CD20 antibody compared to subjects treated with an anti-CD20 antibody (FIG. 4A).

[2] = CSF, 48 weeks after transitioning from anti-CD20 antibody to tolebrutinib 60 mg vs anti-CD20 antibody
[3] = CSF, 48 weeks post-transition to tolebrutinib vs anti-CD20
[4] = CSF, subjects treated with anti-CD20 antibody for at least six months vs untreated MS subjects

C=CC(=O)N1CCC[C@@H](n2c(=O)n(-c3ccc(Oc4ccccc4)cc3)c3c(N)nccc32)C1 [tolebrutinib, (R)-1-(1-acryloylpiperidin-3-yl)-4-amino-3-(4-phenoxyphenyl)-1H-imidazo[4,5-c]pyridin-2(3H)-one]
CXCL13 in CSF (CXCL13): decrease | example biomarkers NEFL, CXCL13, CXCL10, CD27, CCL4 and CCL3 in CSF ([1]; 48 weeks after transitioning from anti-CD20 therapy to tolebrutinib): disease-reversed proteins | ANGPT1 Fold-Change (48wkBTKi. vs. antiCD20) [1, 2]: −1.658 | ANGPTL2 Fold-Change (48wkBTKi. vs. antiCD20) [1, 2]: −3.266 | ATXN10 Fold-Change (48wkBTKi. vs. antiCD20) [1, 2]: −6.437 | CCL3 Fold-Change (48wkBTKi. vs. antiCD20) [1, 2]: −2.142 | CCL4 Fold-Change (48wkBTKi. vs. antiCD20) [1, 2]: −2.092 | CCL8 Fold-Change (48wkBTKi. vs. antiCD20) [1, 2]: −2.68 | CCL11 Fold-Change (48wkBTKi. vs. antiCD20) [1, 2]: −1.9597 | CCN4 Fold-Change (48wkBTKi. vs. antiCD20) [1, 2]: −1.611 | CD4 Fold-Change (48wkBTKi. vs. antiCD20) [1, 2]: −1.706 | CD8A Fold-Change (48wkBTKi. vs. antiCD20) [1, 2]: −1.75 | CD38 Fold-Change (48wkBTKi. vs. antiCD20) [1, 2]: −2.035 | CD276 Fold-Change (48wkBTKi. vs. antiCD20) [1, 2]: −2.173 | CD302 Fold-Change (48wkBTKi. vs. antiCD20) [1, 2]: −1.5791 | CDH3 Fold-Change (48wkBTKi. vs. antiCD20) [1, 2]: −2.293 | CDNF Fold-Change (48wkBTKi. vs. antiCD20) [1, 2]: −2.1 | CGREF1 Fold-Change (48wkBTKi. vs. antiCD20) [1, 2]: −1.535 | CHRDL1 Fold-Change (48wkBTKi. vs. antiCD20) [1, 2]: −2.236 | CLEC4C Fold-Change (48wkBTKi. vs. antiCD20) [1, 2]: −1.714 | CLUL1 Fold-Change (48wkBTKi. vs. antiCD20) [1, 2]: −2.021 | CTRC Fold-Change (48wkBTKi. vs. antiCD20) [1, 2]: −2.869 | CXCL1 Fold-Change (48wkBTKi. vs. antiCD20) [1, 2]: −3.054 | CXCL8 Fold-Change (48wkBTKi. vs. antiCD20) [1, 2]: −1.605 | CXCL10 Fold-Change (48wkBTKi. vs. antiCD20) [1, 2]: −3.598 | DRAXIN Fold-Change (48wkBTKi. vs. antiCD20) [1, 2]: −2.047 | HS3ST3B1 Fold-Change (48wkBTKi. vs. antiCD20) [1, 2]: −1.708 | HYOU1 Fold-Change (48wkBTKi. vs. antiCD20) [1, 2]: −1.676 | IL5RA Fold-Change (48wkBTKi. vs. antiCD20) [1, 2]: −1.716 | IL11 Fold-Change (48wkBTKi. vs. antiCD20) [1, 2]: −6.841 | KAZALD1 Fold-Change (48wkBTKi. vs. antiCD20) [1, 2]: −1.548 | KRT18 Fold-Change (48wkBTKi. vs. antiCD20) [1, 2]: −1.6528 | LPL Fold-Change (48wkBTKi. vs. antiCD20) [1, 2]: −1.744 | LTA Fold-Change (48wkBTKi. vs. antiCD20) [1, 2]: −1.552 | MATN3 Fold-Change (48wkBTKi. vs. antiCD20) [1, 2]: −1.889 | MFAP5 Fold-Change (48wkBTKi. vs. antiCD20) [1, 2]: −2.536 | MSLN Fold-Change (48wkBTKi. vs. antiCD20) [1, 2]: −2.068 | MZB1 Fold-Change (48wkBTKi. vs. antiCD20) [1, 2]: −1.968 | NEFL Fold-Change (48wkBTKi. vs. antiCD20) [1, 2]: −3.42 | NPDC1 Fold-Change (48wkBTKi. vs. antiCD20) [1, 2]: −2.471 | NPTX1 Fold-Change (48wkBTKi. vs. antiCD20) [1, 2]: −2.103 | NPY Fold-Change (48wkBTKi. vs. antiCD20) [1, 2]: −1.797 | NTproBNP Fold-Change (48wkBTKi. vs. antiCD20) [1, 2]: −2.314 | NUB1 Fold-Change (48wkBTKi. vs. antiCD20) [1, 2]: −1.624 | NUCB2 Fold-Change (48wkBTKi. vs. antiCD20) [1, 2]: −2.551 | PDCD5 Fold-Change (48wkBTKi. vs. antiCD20) [1, 2]: −2.511 | PRL Fold-Change (48wkBTKi. vs. antiCD20) [1, 2]: −3.416 | ROBO1 Fold-Change (48wkBTKi. vs. antiCD20) [1, 2]: −1.511 | RTBDN Fold-Change (48wkBTKi. vs. antiCD20) [1, 2]: −2.625 | SCG2 Fold-Change (48wkBTKi. vs. antiCD20) [1, 2]: −2.959 | SCG3 Fold-Change (48wkBTKi. vs. antiCD20) [1, 2]: −2.2848 | SPRY2 Fold-Change (48wkBTKi. vs. antiCD20) [1, 2]: −1.907 | STC1 Fold-Change (48wkBTKi. vs. antiCD20) [1, 2]: −1.863 | TDGF1 Fold-Change (48wkBTKi. vs. antiCD20) [1, 2]: −4.457 | TIMP4 Fold-Change (48wkBTKi. vs. antiCD20) [1, 2]: −1.776 | TNFRSF6B Fold-Change (48wkBTKi. vs. antiCD20) [1, 2]: −2.999 | TNFRSF13B Fold-Change (48wkBTKi. vs. antiCD20) [1, 2]: −2.063 | WFIKKN2 Fold-Change (48wkBTKi. vs. antiCD20) [1, 2]: −2.432 | WIF1 Fold-Change (48wkBTKi. vs. antiCD20) [1, 2]: −1.994 | share of disease-associated proteins reverting towards levels observed in healthy volunteers ([1]; CSF, 48 weeks after transitioning to tolebrutinib from a B-cell depleting therapy): 47% | number of proteins with decreased abundance [1, 3]: 60 proteins | number of proteins with increased abundance [1, 3]: 0 proteins | proteins with increased abundance in subjects with MS (relative to HV) that were reversed ([1]; CSF, 48 weeks post-transitioning to tolebrutinib relative to anti-CD20 baseline levels): 30 proteins | CXCL10 in CSF ([1]; Olink, subjects who switched from ocrelizumab to tolebrutinib (12 and 48 weeks)): downregulated | CXCL13 in CSF ([1]; Olink, subjects who switched from ocrelizumab to tolebrutinib, twelve week and forty-eight week course): downregulated

anti-CD20 antibody: B cell depleting agent; participants had been treated with ocrelizumab, humanized monoclonal antibody directed against the CD20 antigen
CD6 Fold-change (antiCD20. vs. Untreated) [1, 4]: −1.8 | CD22 Fold-change (antiCD20. vs. Untreated) [1, 4]: −2.442 | FCRL1 Fold-change (antiCD20. vs. Untreated) [1, 4]: −2.744 | SORD Fold-change (antiCD20. vs. Untreated) [1, 4]: 2.045
